Results reported in patent US20170354177A1, “ANTIFUNGAL COMPOSITION COMPRISING ANTIFUNGAL PEPTIDE AND TERPENE ALCOHOL” (MARUHA NICHIRO CORPORATION, priority 2014, published 2017).

Columns and labels:
[1] = tested on: Candida albicans TIMM1768; assay: In vitro screening of material performing synergistic effect (10 min contact, crystal violet staining, absorbance 620 nm); type: cell-based; conditions: for synergistic effect by the combined use with a protamine hydrolysate: combined with protamine hydrolysate 0.125 or 2.0 mg/mL; for antibacterial activity in single use (relative absorbance, blank = 1): 0.008-1 mg/mL
Excerpt: Candida albicans TIMM1768
Hinokitiol (manufactured by Kiseitech Co., Ltd.), terpinen-4-ol (manufactured by Tokyo Chemical Industry, Co., Ltd.), geraniol (manufactured by Kanto Chemical Co., Inc.), menthol (manufactured by Wako Pure Chemical Industries, Ltd.), cinnamaldehyde (manufactured by Wako Pure Chemical Industries, Ltd.) and capric acid (manufactured by Wako Pure Chemical Industries, Ltd.) were individually dissolved in RPMI medium so that the concentration in a test material was 0.008, 0.04, 0.2, 1 mg/mL, and the protamine hydrolysate prepared according to Example 1 was dissolved so that the concentration of the protamine hydrolysate in a test material was 0, 0.125, 2.0 mg/mL, and the solutions were subjected to the test. Further, 0.002, 0.008, 0.031, 0.125, 0.5, 2, 8, 32 mg/mL solutions using the protamine hydrolysate singly were subjected to the test. Evaluation method
C. albicans TIMM1768 strain was added to a 96 well microplate each in an amount of 200 μL so that 2.5×10^5 cells/well, and cultured for 2.5 to 3.5 hours at 37° C. under 5% CO2. After cultivation, each medium was removed under suction, and each test material was added in an amount of 200 μL/well. After allowing to stand still at 37° C. for 10 minutes, each sample solution was removed under suction, and RPMI medium was added in an amount of 200 μL/well, and cultured for 2.5 hours at 37° C. under 5% CO2. After cultivation, each sample was stained with crystal violet and the absorbance at 620 nm was measured. The antibacterial activity was expressed in terms of the relative value of each experimental section when the blank absorbance was 1.
The results of in vitro evaluation when using a protamine hydrolysate and terpene alcohols in combination are shown in FIGS. 1 to 6, and the result of in vitro evaluation when using a protamine hydrolysate singly is shown in FIG. 7. In FIGS. 1 to 6, ♦ represents the result of single use of terpene alcohols, ▪ represents the result of the combined use with a protamine hydrolysate 0.125 mg/ml, and ▴ represents the result of the combined use with a protamine hydrolysate 2.0 mg/ml, respectively.

[2] = tested on: Candida albicans TIMM1768; assay: In vitro combined use of protamine hydrolysate and Hinokitiol (16 h culture, crystal violet), IC90 and FIC index; type: cell-based; conditions: TIMM1768, Pro 0, none printed in the table, read-out: IC90 of hinokitiol alone

In the case of `CC1CCC(C(C)C)C(O)C1` (stereo not shown) [menthol], the “synergistic effect by the combined use with a protamine hydrolysate” value (“synergistic effect by the combined use” below) [1] is reported as “the activity was slightly improved by the combined use with a protamine hydrolysate” and the “antibacterial activity in single use (relative absorbance, blank = 1)” value [1] is reported as “low activity”.

`CCCCCCCCCC(=O)O` [capric acid, reference compound] was tested, and the “synergistic effect by the combined use” value [1] was “the synergistic effect by the combined use with a protamine hydrolysate was not recognized” and the “antibacterial activity in single use (relative absorbance, blank = 1)” value [1] was “little antibacterial activity”.

For `CC1=CCC(O)(C(C)C)CC1` (stereo not shown) [terpinen-4-ol], the “synergistic effect by the combined use” value [1] was “the activity was slightly improved by the combined use with a protamine hydrolysate” and the “antibacterial activity in single use (relative absorbance, blank = 1)” value [1] was “low activity”.

For `CC(C)=CCC/C(C)=C/CO` [geraniol], the “synergistic effect by the combined use” value [1] was “the activity was slightly improved by the combined use with a protamine hydrolysate” and the “antibacterial activity in single use (relative absorbance, blank = 1)” value [1] was “low activity”.

In the case of `CC(C)c1cccc(=O)c(O)c1` [Hinokitiol], the “synergistic effect by the combined use” value [1] is reported as “a synergistic effect of improving activity by the combined use with a protamine hydrolysate was recognized”, the “antibacterial activity in single use (relative absorbance, blank = 1)” value [1] is reported as “showed an antibacterial activity even in the single use” and the IC90 [2] is reported as 0.77 µg/mL.

For `O=CC=Cc1ccccc1` [Cinnamaldehyde, cinnamaldehyde, reference compound], the “synergistic effect by the combined use” value [1] was “the synergistic effect by the combined use with a protamine hydrolysate was not recognized” and the “antibacterial activity in single use (relative absorbance, blank = 1)” value [1] was “little antibacterial activity”.
